Among the data in patent US4061639A, “Quinolinesulfonyl compounds” (The Dow Chemical Company, priority 1976, dated 1977) are inhibition values, retold here.

The structures appear in SMILES notation.

What all share (assay): agar dilution antimicrobial test (growth inhibition)
Holding throughout (format): cell-based
A general note: Agar dilution tests growth on a series of plates holding different concentrations.

The subject of one assay is A. aerogenes. As to conditions: Klebsiella aerogenes, read-out: Percent Growth Inhibition. Here is the method: (§1) In representative activity tests, 8-quinolinesulfonyl bromide is dispersed in warm melted nutrient agar which is then poured into petri dishes and allowed to solidify, the quinoline compound being employed in an amount sufficient to provide from 10 to 500 parts by weight thereof per million parts (ppm) of the ultimate agar composition. The surface of the agar is then inoculated with a variety of bacterial and fungal pest organisms, and the inoculated plates are incubated under conditions conducive to bacterial and fungal growth. Similar check plates in which the agar contains no active quinoline or other toxic compound are similarly inoculated and incubated.
(§2) In such operations, 8-quinolinesulfonyl bromide gave 100% growth inhibition (kills) and control of the following organisms at the indicated concentrations in parts per million:
(§3) In comparative operations, 8-quinolinesulfonyl chloride was tested for antimicrobial activity at 500 ppm using identical agar dilution tests. The following table indicates the percent growth inhibition of the following organisms: […]

The subject of a further assay is B. subtilis. As to conditions: Bacillus subtilis, read-out: Percent Growth Inhibition. As to the method: as §1, §2, §3
The test system of another assay is C. albicans. As to conditions: Candida albicans, read-out: Percent Growth Inhibition. Here is the method: as §1, §2, §3
The next assay concerns C. ips. As to conditions: read-out: Percent Growth Inhibition. Here is the method:
as §1, §2, §3

Another assay relates to C. pelliculosa. As to conditions: Hansenula anomala, read-out: Percent Growth Inhibition. Here is the method:
as §1, §2, §3

For another assay, the system named is E. coli. As to conditions: Escherichia coli, read-out: Percent Growth Inhibition. Here is the method:
as §1, §2, §3

A further assay has as its system M. phlei. As to conditions: Mycolicibacterium phlei, read-out: Percent Growth Inhibition. As to the method:
as §1, §2, §3

The test system of another assay is P. Str-10. As to conditions: read-out: Percent Growth Inhibition. Here is the method:
as §1, §2, §3

In a further assay the test system is P. pullulans. As to conditions: read-out: Percent Growth Inhibition. As to the method:
as §1, §2, §3

Another assay deals with R. nigricans. As to conditions: Rhizopus stolonifer, read-out: Percent Growth Inhibition. Here is the method:
as §1, §2, §3

For the next assay, the system named is S. aureus. As to conditions: Staphylococcus aureus, read-out: Percent Growth Inhibition. As to the method:
as §1, §2, §3

In another assay the test system is S. typhosa. As to conditions: read-out: Percent Growth Inhibition. As to the method: as §1, §2, §3
The test system of assay [1] is Trichoderm Sp. Madison P-42. As to conditions: read-out: Percent Growth Inhibition. As to the method: as §1, §2, §3

Take `O=S(=O)(Cl)c1cccc2cccnc12` [8-Quinolinesulfonyl Chloride, 8-quinolinesulfonyl chloride]: the inhibition at 500 ppm in the assay with A. aerogenes, with B. subtilis, in the assay on C. albicans, in the assay on C. ips, in the assay on C. pelliculosa and in the assay on E. coli was 0% each time. Also, the inhibition (in general, the percentage by which the read-out fell short of the control) at 500 ppm in the assay on M. phlei came to 50%; in the assay with P. Str-10, 0%; in the assay on P. pullulans it was 0%; in the assay on R. nigricans, 0%; in the assay on S. aureus, 0%; in the assay on S. typhosa, 0%. Further, the inhibition at 500 ppm in [1] was 0%.
